Read-outs that look alike come from different tables or passages of the source.
Assays:
[1] = Cytotoxicity (TC50) in PBMCs; type: cell-based; settings: PBMCs
PBMCs = test: Cytotoxicity (TC50) in PBMCs; type: cell-based
HIV-2 Isolates = test: Activity against HIV-2 isolates in PBMCs, RT endpoint; type: cell-based; settings: for IC50: Human immunodeficiency virus 2, PBMC
HIV-1 Subtype Isolates = test: Activity against HIV-1 subtype isolates in PBMCs, RT endpoint; settings: for IC50: Human immunodeficiency virus 1, PBMC

CCCCCCCCCCCCCCCCOCCCOP(=O)(O)CO[C@H](C)Cn1cnc2c(N)ncnc21 [CMX157, Hexadecyloxypropyl-9-R-[2-(Phosphonomethoxy)Propyl]-Adenine]
CC50 ([1]; HIV-2 isolate CDC310319): > 1000 nM | CC50 ([1]; human, isolate ADA, subtype B, read-out: TC 50 (the source's name)): > 1000 nM | CC50 (PBMCs; HIV-2 isolate CBL-20): > 1000 nM | CC50 (PBMCs; HIV-2 isolate CDC310342): > 1000 nM | CC50 (PBMCs; isolate 96USHIPS7, subtype B, read-out: TC 50 (the source's name)): > 1000 nM | CC50 (PBMCs; isolate BCF01, subtype O, read-out: TC 50 (the source's name)): > 1000 nM | CC50 (PBMCs; isolate BCF02, subtype O, read-out: TC 50 (the source's name)): > 1000 nM | CC50 (PBMCs; isolate BCF03, subtype O, read-out: TC 50 (the source's name)): > 1000 nM | CC50 (PBMCs; isolate BR/92/014, subtype B, read-out: TC 50 (the source's name)): > 1000 nM | CC50 (PBMCs; isolate BR/92/025, subtype C, read-out: TC 50 (the source's name)): > 1000 nM | CC50 (PBMCs; isolate BR/93/019, subtype F, read-out: TC 50 (the source's name)): > 1000 nM | CC50 (PBMCs; isolate BR/93/020, subtype F, read-out: TC 50 (the source's name)): > 1000 nM | CC50 (PBMCs; isolate BR/93/029, subtype F, read-out: TC 50 (the source's name)): > 1000 nM | CC50 (PBMCs; isolate CMU06, subtype E, read-out: TC 50 (the source's name)): > 1000 nM | CC50 (PBMCs; isolate CMU08, subtype E, read-out: TC 50 (the source's name)): > 1000 nM | CC50 (PBMCs; isolate G3, subtype G, read-out: TC 50 (the source's name)): > 1000 nM | CC50 (PBMCs; isolate IN/93/101, subtype C, read-out: TC 50 (the source's name)): > 1000 nM | CC50 (PBMCs; isolate JR-CSF, subtype B, read-out: TC 50 (the source's name)): > 1000 nM | CC50 (PBMCs; isolate JV1083, subtype G, read-out: TC 50 (the source's name)): > 1000 nM | CC50 (PBMCs; isolate MW/93/959, subtype C, read-out: TC 50 (the source's name)): > 1000 nM | CC50 (PBMCs; isolate RU132, subtype G, read-out: TC 50 (the source's name)): > 1000 nM | CC50 (PBMCs; isolate RW/92/009, subtype A, read-out: TC 50 (the source's name)): > 1000 nM | CC50 (PBMCs; isolate TH/92/026, subtype B, read-out: TC 50 (the source's name)): > 1000 nM | CC50 (PBMCs; isolate TH/93/073, subtype E, read-out: TC 50 (the source's name)): > 1000 nM | CC50 (PBMCs; isolate UG/92/001, subtype D, read-out: TC 50 (the source's name)): > 1000 nM | CC50 (PBMCs; isolate UG/92/024, subtype D, read-out: TC 50 (the source's name)): > 1000 nM | CC50 (PBMCs; isolate UG/92/029, subtype A, read-out: TC 50 (the source's name)): > 1000 nM | CC50 (PBMCs; isolate UG/92/037, subtype A, read-out: TC 50 (the source's name)): > 1000 nM | CC50 (PBMCs; isolate UG/92/046, subtype D, read-out: TC 50 (the source's name)): > 1000 nM | TI (TC50/IC50) (HIV-2 Isolates; HIV-2 isolate CBL-20): >223 | TI (TC50/IC50) (HIV-2 Isolates; HIV-2 isolate CDC310319): >564 | TI (TC50/IC50) (HIV-2 Isolates; HIV-2 isolate CDC310342): >232 | IC50 (HIV-2 Isolates; HIV-2 isolate CBL-20): 4.48 nM | IC50 (HIV-2 Isolates; HIV-2 isolate CDC310319): 1.77 nM | IC50 (HIV-2 Isolates; HIV-2 isolate CDC310342): 4.31 nM | IC50 (HIV-1 Subtype Isolates; read-out: IC50s against all major HIV subtypes, subtypes A-G, O and HIV-2, Tables 2 and 3): 0.2 to 7.2 nM | IC50 (HIV-1 Subtype Isolates; read-out: RT Endpoint IC50, isolate 96USHIPS7, subtype B): 4.8 nM | IC50 (HIV-1 Subtype Isolates; read-out: RT Endpoint IC50, isolate ADA, subtype B): 1.08 nM | IC50 (HIV-1 Subtype Isolates; read-out: RT Endpoint IC50, isolate BCF01, subtype O): 7.18 nM | IC50 (HIV-1 Subtype Isolates; read-out: RT Endpoint IC50, isolate BCF02, subtype O): 2.47 nM | IC50 (HIV-1 Subtype Isolates; read-out: RT Endpoint IC50, isolate BCF03, subtype O): 5.29 nM | IC50 (HIV-1 Subtype Isolates; read-out: RT Endpoint IC50, isolate BR/92/014, subtype B): 1.58 nM | IC50 (HIV-1 Subtype Isolates; read-out: RT Endpoint IC50, isolate BR/92/025, subtype C): 3.43 nM | IC50 (HIV-1 Subtype Isolates; read-out: RT Endpoint IC50, isolate BR/93/019, subtype F): 6.4 nM | IC50 (HIV-1 Subtype Isolates; read-out: RT Endpoint IC50, isolate BR/93/020, subtype F): 0.73 nM | IC50 (HIV-1 Subtype Isolates; read-out: RT Endpoint IC50, isolate BR/93/029, subtype F): 1.03 nM | IC50 (HIV-1 Subtype Isolates; read-out: RT Endpoint IC50, isolate CMU06, subtype E): 1.03 nM | IC50 (HIV-1 Subtype Isolates; read-out: RT Endpoint IC50, isolate CMU08, subtype E): 2.81 nM | IC50 (HIV-1 Subtype Isolates; read-out: RT Endpoint IC50, isolate G3, subtype G): 2.68 nM | IC50 (HIV-1 Subtype Isolates; read-out: RT Endpoint IC50, isolate IN/93/101, subtype C): 0.53 nM | IC50 (HIV-1 Subtype Isolates; read-out: RT Endpoint IC50, isolate JR-CSF, subtype B): 0.68 nM | IC50 (HIV-1 Subtype Isolates; read-out: RT Endpoint IC50, isolate JV1083, subtype G): 2.32 nM | IC50 (HIV-1 Subtype Isolates; read-out: RT Endpoint IC50, isolate MW/93/959, subtype C): 4.5 nM | IC50 (HIV-1 Subtype Isolates; read-out: RT Endpoint IC50, isolate RU132, subtype G): 1.63 nM | IC50 (HIV-1 Subtype Isolates; read-out: RT Endpoint IC50, isolate RW/92/009, subtype A): 1.75 nM | IC50 (HIV-1 Subtype Isolates; read-out: RT Endpoint IC50, isolate TH/92/026, subtype B): 0.44 nM | IC50 (HIV-1 Subtype Isolates; read-out: RT Endpoint IC50, isolate TH/93/073, subtype E): 2.95 nM | IC50 (HIV-1 Subtype Isolates; read-out: RT Endpoint IC50, isolate UG/92/001, subtype D): 5.16 nM | IC50 (HIV-1 Subtype Isolates; read-out: RT Endpoint IC50, isolate UG/92/024, subtype D): 0.3 nM | IC50 (HIV-1 Subtype Isolates; read-out: RT Endpoint IC50, isolate UG/92/029, subtype A): 5.84 nM | IC50 (HIV-1 Subtype Isolates; read-out: RT Endpoint IC50, isolate UG/92/037, subtype A): 2.3 nM | IC50 (HIV-1 Subtype Isolates; read-out: RT Endpoint IC50, isolate UG/92/046, subtype D): 0.96 nM | TI (TC50/IC50) (HIV-1 Subtype Isolates; isolate 96USHIPS7, subtype B): >208 | TI (TC50/IC50) (HIV-1 Subtype Isolates; isolate ADA, subtype B): >925 | TI (TC50/IC50) (HIV-1 Subtype Isolates; isolate BCF01, subtype O): >139 | TI (TC50/IC50) (HIV-1 Subtype Isolates; isolate BCF02, subtype O): >405 | TI (TC50/IC50) (HIV-1 Subtype Isolates; isolate BCF03, subtype O): >189 | TI (TC50/IC50) (HIV-1 Subtype Isolates; isolate BR/92/014, subtype B): >633 | TI (TC50/IC50) (HIV-1 Subtype Isolates; isolate BR/92/025, subtype C): >291 | TI (TC50/IC50) (HIV-1 Subtype Isolates; isolate BR/93/019, subtype F): >156 | TI (TC50/IC50) (HIV-1 Subtype Isolates; isolate BR/93/020, subtype F): >1,362 | TI (TC50/IC50) (HIV-1 Subtype Isolates; isolate BR/93/029, subtype F): >972 | TI (TC50/IC50) (HIV-1 Subtype Isolates; isolate CMU06, subtype E): >970 | TI (TC50/IC50) (HIV-1 Subtype Isolates; isolate CMU08, subtype E): >356 | TI (TC50/IC50) (HIV-1 Subtype Isolates; isolate G3, subtype G): >373 | TI (TC50/IC50) (HIV-1 Subtype Isolates; isolate IN/93/101, subtype C): >1,892 | TI (TC50/IC50) (HIV-1 Subtype Isolates; isolate JR-CSF, subtype B): >1,480 | TI (TC50/IC50) (HIV-1 Subtype Isolates; isolate JV1083, subtype G): >431 | TI (TC50/IC50) (HIV-1 Subtype Isolates; isolate MW/93/959, subtype C): >222 | TI (TC50/IC50) (HIV-1 Subtype Isolates; isolate RU132, subtype G): >615 | TI (TC50/IC50) (HIV-1 Subtype Isolates; isolate RW/92/009, subtype A): >571 | TI (TC50/IC50) (HIV-1 Subtype Isolates; isolate TH/92/026, subtype B): >2,278 | TI (TC50/IC50) (HIV-1 Subtype Isolates; isolate TH/93/073, subtype E): >339 | TI (TC50/IC50) (HIV-1 Subtype Isolates; isolate UG/92/001, subtype D): >194 | TI (TC50/IC50) (HIV-1 Subtype Isolates; isolate UG/92/024, subtype D): >3,346 | TI (TC50/IC50) (HIV-1 Subtype Isolates; isolate UG/92/029, subtype A): >171 | TI (TC50/IC50) (HIV-1 Subtype Isolates; isolate UG/92/037, subtype A): >435 | TI (TC50/IC50) (HIV-1 Subtype Isolates; isolate UG/92/046, subtype D): >1,039

Reference: patent US8993542B2, “Methods of treating viral infections” (priority 2008, dated 2015)
